IC50 data for 26 compounds are collected here from patent US8937077B2, “Bicyclic diamines as janus kinase inhibitors” (Merck Sharp & Dohme Corp., priority 2010, dated 2015).

In the first experiment the target is T1, Jak1 (Homo sapiens, UniProt P23458).
T1 construct: using a recombinant purified GST-tagged catalytic domain for each enzyme; GST; purchased Invitrogen M4290
T1 sequence (P23458 875-1153 limits assumed): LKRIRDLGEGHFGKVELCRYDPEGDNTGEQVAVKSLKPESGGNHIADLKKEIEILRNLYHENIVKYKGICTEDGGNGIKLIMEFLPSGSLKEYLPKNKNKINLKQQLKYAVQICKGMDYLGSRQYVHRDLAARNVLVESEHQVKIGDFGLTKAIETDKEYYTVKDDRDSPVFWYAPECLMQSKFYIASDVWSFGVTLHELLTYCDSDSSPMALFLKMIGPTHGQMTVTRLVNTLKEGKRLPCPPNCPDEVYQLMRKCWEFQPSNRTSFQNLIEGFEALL
The experiment can be described thus: Jak Biochemical HTRF Assay (Jak1). The following applies: IC50 class, recombinant GST-tagged catalytic domain, read-out: Jak1 activity. An excerpt: Compounds of formula I can be prepared according to the general procedures described in the Schemes and Examples herein, using appropriate materials. Representative compounds of the present invention are exemplified herein below. The compounds exemplified are not, however, to be construed as limiting the scope of the invention in any manner. The examples further illustrate details for the preparation of the compounds of the present invention. Those skilled in the art will readily understand that known variations of protecting groups, of reagents, as well as of the conditions and processes of the following preparative procedures, can be used to prepare these compounds. It is also understood that whenever a chemical reagent is not commercially available, such a chemical reagent can be readily prepared by those skilled in the art by either following or adapting known methods described in the literature or described herein. Chiral analogs were prepared via incorporation of chiral reagents or obtained after chiral chromatography separation of a racemically generated analog. All temperatures are degrees Celsius unless otherwise noted. Mass spectra (MS) were measured either by electrospray ion-mass spectroscopy (ESMS) or by atmospheric pressure chemical ionization mass spectroscopy (APCI). Jak1 data were obtained using the in vitro assay described below.
Jak Biochemical HTRF Assay Protocol
The ability of compounds to inhibit the activity of Jak1, Jak2, Jak3, and Tyk2 was measured using a recombinant purified GST-tagged catalytic domain for each enzyme (Invitrogen Jak1 #M4290, […]) in an HTRF format biochemical assay. The reactions employed a common peptide substrate, LCB-EQEDEPEGDYFEWLW-NH2 (in-house). The basic assay protocol is as follows: First, […] of diluted compounds in DMSO were dispensed into the wells of a dry 384-well Black plate (Greiner #781076) using a Labcyte Echo 555 acoustic dispenser. Subsequent reagent additions employed an Agilent Bravo. Next, 18 μL, of 1.11X enzyme and 1.11X substrate in 1X assay buffer (Invitrogen kinase buffer #PV3189, 2 mM DTT, 0.05% BSA) were added to the wells and shaken and then preincubated for 30 minutes at room temperature to allow compound binding to equilibrate. After equilibration, 2 μL of 10X ATP in 1X assay buffer was added to initiate the kinase reaction and the plates were shaken and then incubated at room temperature for 120 minutes. At the end of the incubation, 20 μL of 2X stop buffer (streptavidin-Dylight (Thermo #21845), Eu-tagged pY20 antibody (Perkin Elmer #AD0067), EDTA, HEPES, and Triton) was added to quench the reaction. Plates were shaken and centrifuged and then incubated 60 minutes at room temperature and then read on a Perkin Elmer Envision (λex=337 nm, λem=665 and 615 nm, TRF delay time=20 μs). HTRF signal=10,000*665 nm reading/615 nm reading. After normalization to untreated controls, the percent inhibition of the HTRF signal at each compound concentration was calculated. The plot of percent inhibition versus the log of compound concentration was fit with a 4-parameter dose response equation to calculate IC50 values.
For orientation: Time-resolved FRET reads energy transfer from a long-lived donor to a nearby acceptor.
As to `O=C(OCCF)N1CCC[C@@H]2[C@H]1CCN2c1ncnc2[nH]ccc12` (single isomer, unassigned) [Example 3-30], the IC50 was in the range of 10 to 100 nM.
Same read-out and setting: the same measure for `O=C(OCc1ccc(F)cc1)N1CCCC2C1CCN2c1ncnc2[nH]ccc12` (stereo not drawn) [Example 3-2, 4-fluorobenzyl 1-(7H-pyrrolo[2,3-d]pyrimidin-4-yl)octahydro-4H-pyrrolo[3,2-b]-pyridine-4-carboxylate]: 10 to 100 nM; for `O=C(O)c1ccc(CCOC(=O)N2CCC[C@@H]3[C@H]2CCN3c2ncnc3[nH]ccc23)cc1` [Example 28, 4-[2-({[(3aR,7aR)-1-(7H-pyrrolo[2,3-d]pyrimidin-4-yl)octahydro-4H-pyrrolo[3,2-b]pyridin-4-yl]carbonyl}oxy)ethyl]benzoic acid]: 100 to 1000 nM.
Take `COCC(=O)N1CCC[C@@H]2[C@H]1CCN2c1ncnc2[nH]ccc12` (single isomer, unassigned) [Example 29-8]: the IC50 was in the range of 100 to 1000 nM.
`O=C(c1ccsc1)N1CCC[C@@H]2[C@H]1CCN2c1ncnc2[nH]ccc12` [Example 29-32, 4-[(3aR,7aR)-4-(thiophen-3-ylcarbonyl)octahydro-1H-pyrrolo[3,2-b]pyridin-1-yl]-7H-pyrrolo[2,3-d]pyrimidine]: the IC50 was in the range of 10 to 100 nM.
On the same count and under the same terms, then `COC(=O)c1ccc(CCOC(=O)N2CCC[C@@H]3[C@H]2CCN3c2ncnc3[nH]ccc23)cc1` [Example 3-21, 2-[4-(methoxycarbonyl)phenyl]ethyl (3aR,7aR)-1-(7H-pyrrolo[2,3-d]pyrimidin-4-yl)octahydro-4H-pyrrolo[3,2-b]pyridine-4-carboxylate], with 10 to 100 nM; and `O=S(=O)(CCc1ccccc1)N1CCC[C@@H]2[C@H]1CCN2c1ncnc2[nH]ccc12` [Example 32-2, 4-{(3aR,7aR)-4-[(2-phenylethyl)sulfonyl]octahydro-1H-pyrrolo[3,2-b]pyridin-1-yl}-7H-pyrrolo[2,3-d]pyrimidine], with 1 to 10 nM.
Still for that read-out and setting: the same measure for `CCC(=O)N1CCC[C@@H]2[C@H]1CCN2c1ncnc2[nH]ccc12` (single isomer, unassigned) [Example 29-7]: 100 to 1000 nM; for `Cc1cc2c(N3CCC4C3CCCN4C(=O)OCc3ccccc3)ncnc2[nH]1` [Example 15, (3aS,7aS and 3aR,7aR) benzyl 1-(6-methyl-7H-pyrrolo[2,3-d]pyrimidin-4-yl)octahydro-4H-pyrrolo[3,2-b]pyridine-4-carboxylate]: 10 to 100 nM; for `O=C(OCCc1ccc2c(c1)CCO2)N1CCC[C@@H]2[C@H]1CCN2c1ncnc2[nH]ccc12` [Example 3-28, 2-(2,3-dihydro-1-benzofuran-5-yl)ethyl (3aR,7aR)-1-(7H-pyrrolo[2,3-d]pyrimidin-4-yl)octahydro-4H-pyrrolo[3,2-b]pyridine-4-carboxylate]: 10 to 100 nM.
Same read-out and setting: the same measure for `CC(C)(C)OC(=O)N1CCC[C@@H]2[C@H]1CCN2c1ncnc2[nH]ccc12` [Example 11, tert-butyl (3aR,7aR)-1-(7H-pyrrolo[2,3-d]pyrimidin-4-yl)octahydro-4H-pyrrolo[3,2-b]pyridin-4-carboxylate]: 100 to 1000 nM; for `COC(=O)c1cccc(OC(=O)N2CCCC3C2CCN3c2ncnc3[nH]ccc23)c1` (stereo not drawn) [Example 3-26, 3-(methoxyeaxbonyl)phenyl 1-(7H-pyrrolo[2,3-d]pyrimidin-4-yl)octahydro-4H-pyrrolo[3,2-b]pyridine-4-carboxylate]: 10 to 100 nM.
`O=C1NCc2ccc(C(=O)N3CCC[C@@H]4[C@H]3CCN4c3ncnc4[nH]ccc34)cc21` [Example 29-62, 6-{[(3aR,7aR)-1-(7H-pyrrolo[2,3-d]pyrimidin-4-yl)octahydro-4H-pyrrolo[3,2-b]pyridin-4-yl]carbonyl}-2,3-dihydro-1H-isoindol-1-one]: the IC50 lay in the range of 10 to 100 nM.
Consider `O=C(CN1CCc2ccccc2C1)N1CCC[C@@H]2[C@H]1CCN2c1ncnc2[nH]ccc12` [Example 29-36, 2-{2-oxo-2-[(3aR,7aR)-1-(7H-pyrrolo[2,3-d]pyrimidin-4-yl)octahydro-4H-pyrrolo[3,2-b]pyridin-4-yl]ethyl}-1,2,3,4-tetrahydroisoquinoline], for which the IC50 was in the range of 10 to 100 nM.
On the same count and under the same terms, the same measure for `O=C(C1COc2ccccc2O1)N1CCC[C@@H]2[C@H]1CCN2c1ncnc2[nH]ccc12` (stereo partly drawn) [Example 29-38, 4-[(3aR,7aR)-4-(2,3-dihydro-1,4-benzodioxin-2-ylcarbonyl)octahydro-1H-pyrrolo[3,2-b]pyridin-1-yl]-7H-pyrrolo[2,3-d]pyrimidine]: 10 to 100 nM.
Same read-out and setting: the same measure for `NCc1ccc(COC(=O)N2CCC[C@@H]3[C@H]2CCN3c2ncnc3[nH]ccc23)cc1` [Example 9, 4-(aminomethyl)benzyl (3aR,7aR)-1-(7H-pyrrolo[2,3-d]pyrimidin-4-yl)octahydro-4H-pyrrolo[3,2-b]pyridine-4-carboxylate]: 100 to 1000 nM; for `O=C(c1ncoc1C1CC1)N1CCC[C@@H]2[C@H]1CCN2c1ncnc2[nH]ccc12` [Example 29-41, 4-{(3aR,7aR)-4-[(5-cyclopropyl-1,3-oxazol-4-yl)carbonyl]octahydro-1H-pyrrolo[3,2-b]pyridin-1-yl}-7H-pyrrolo[2,3-d]pyrimidine]: 10 to 100 nM.
`O=C(c1cccc(Cl)c1)N1CCC[C@@H]2[C@H]1CCN2c1ncnc2[nH]ccc12` [Example 29-18, 4-{(3aR,7aR)-4-[(3-chlorophenyl)carbonyl]octahydro-1H-pyrrolo[3,2-b]pyridin-1-yl}-7H-pyrrolo[2,3-d]pyrimidine]: the IC50 fell in the range of 10 to 100 nM.
On the same count and under the same terms, then `O=C(O)c1ccc(COC(=O)N2CCC[C@@H]3[C@H]2CCN3c2ncnc3[nH]ccc23)cc1` [Example 6, 4-[({[(3aR,7aR)-1-(7H-pyrrolo[2,3-d]pyrimidin-4-yl)octahydro-4H-pyrrolo[3,2-b]pyridine-4-yl]carbonyl}oxy)methyl]benzoic acid], with 100 to 1000 nM.
On the same count and under the same terms, then `O=C(OCc1ccccc1)N1CCCC2C1CCN2c1ncnc2[nH]ccc12` (racemic) [Example 1, (3aS,7aS and 3aR,7aR) benzyl 1-(7H-pyrrolo[2,3-d]pyrimidin-4-yl)octahydro-4H-pyrrolo[3,2-b]-pyridine-4-carboxylate], with 10 to 100 nM; and `N#CCC(=O)N1CCCC2C1CCN2c1ncnc2[nH]ccc12` [Example 12, (3aS,7aS and 3aR,7aR) 3-oxo-3-[1-(7H-pyrrolo[2,3-d]pyrimidin-4-yl)octahydro-4H-pyrrolo[3,2-b]pyridin-4-yl]propanenitrile], with 10 to 100 nM.
Still for that read-out and setting: the same measure for `O=C(CO)N1CCCC2C1CCN2c1ncnc2[nH]ccc12` [Example 17, (3aS,7aS and 3aR,7aR) 2-hydroxy-1-[1-(7H-pyrrolo[2,3-d]pyrimidin-4-yl)octahydro-4H-pyrrolo[3,2-b]pyridine-4-yl]ethanone]: 100 to 1000 nM; for `Cc1cc(C(=O)N2CCC[C@@H]3[C@H]2CCN3c2ncnc3[nH]ccc23)no1` [Example 29-14, 4-{(3aR,7aR)-4[(5-methylisoxazol-3-yl)carbonyl]octahydro-1H-pyrrolo[3,2-b]pyridin-1-yl}-7H-pyrrolo[2,3-d]pyrimidine]: 100 to 1000 nM.
For `O=C(c1ccccc1)N1CCCC2C1CCN2c1ncnc2[nH]ccc12` (racemic) [Example 29-3, 4-[4-(phenylcarbonyl)octahydro-1H-pyrrolo[3,2-b]pyridin-1-yl]-7H-pyrrolo[2,3-d]-pyrimidine], the IC50 lay in the range of 10 to 100 nM.
Still for that read-out and setting: then `CC(Cc1ccccc1)C(=O)N1CCC[C@@H]2[C@H]1CCN2c1ncnc2[nH]ccc12` (stereo partly drawn) [Example 29-42, 4-[(3aR,7aR)-4-(2-methyl-3-phenylpropanoyl)octahydro-1H-pyrrolo[3,2-b]pyridin-1-yl]-7H-pyrrolo[2,3-d]pyrimidine], with 10 to 100 nM.

Staying with this experiment, now noted: Jak1 activity, IC50 class, recombinant GST-tagged catalytic domain.
With `CC1CCN(C(=O)OCc2ccccc2)C2CCN(c3ncnc4[nH]ccc34)C12` [Example 20, (3aS,7S,7aS and 3aR,7R,7aR) benzyl 7-methyl-1-(7H-pyrrolo[2,3-d]pyrimidin-4-yl)octahydro-4H-pyrrolo[3,2-b]pyridine-4-carboxylate], the IC50 fell in the range of 10 to 100 nM.

The experiment is the same for the next values; noted with them: Representative IC50 values, recombinant GST-tagged catalytic domain, 31.8 μM ATP.
Consider `CC1CCN(C(=O)OCc2ccccc2)C2CCN(c3ncnc4[nH]ccc34)C12` [Example 20, (3aS,7S,7aS and 3aR,7R,7aR) benzyl 7-methyl-1-(7H-pyrrolo[2,3-d]pyrimidin-4-yl)octahydro-4H-pyrrolo[3,2-b]pyridine-4-carboxylate], for which the IC50 was determined as 12 nM.

The experiment is the same for the next values; noted with them: recombinant GST-tagged catalytic domain, 31.8 μM ATP, read-out: Representative IC50 values.
Regarding `O=S(=O)(CCc1ccccc1)N1CCC[C@@H]2[C@H]1CCN2c1ncnc2[nH]ccc12` [Example 32-2, 4-{(3aR,7aR)-4-[(2-phenylethyl)sulfonyl]octahydro-1H-pyrrolo[3,2-b]pyridin-1-yl}-7H-pyrrolo[2,3-d]pyrimidine], the IC50 came out at 7 nM.
For the compound `O=C(CN1CCc2ccccc2C1)N1CCC[C@@H]2[C@H]1CCN2c1ncnc2[nH]ccc12` [Example 29-36, 2-{2-oxo-2-[(3aR,7aR)-1-(7H-pyrrolo[2,3-d]pyrimidin-4-yl)octahydro-4H-pyrrolo[3,2-b]pyridin-4-yl]ethyl}-1,2,3,4-tetrahydroisoquinoline], the IC50 came to 30 nM.
The same measure, in the same setting: the same measure for `N#CCC(=O)N1CCCC2C1CCN2c1ncnc2[nH]ccc12` [Example 12, (3aS,7aS and 3aR,7aR) 3-oxo-3-[1-(7H-pyrrolo[2,3-d]pyrimidin-4-yl)octahydro-4H-pyrrolo[3,2-b]pyridin-4-yl]propanenitrile]: 26 nM.
